Patent US20250163104A1, “MACROCYCLIC IMMUNOMODULATORS” (priority 2021, published 2025)
pIC50: −log10 of the molar value. Where a SMILES comes first, the peptide text is derived from it. Bridges are numbered along the chain shown (N, C = ends). [ ]: non-standard residue; d: D form. Bip = N[C@@H](Cc1ccc(-c2ccccc2)cc1)C(=O)O; Orn = NCCC[C@H](N)C(=O)O; Dab = NCC[C@H](N)C(=O)O

target: T1, human PD-1 / PD-L1-Ig binding on Jurkat cell line over-expressing human PD-1 (Jurkat-PD-1) (Homo sapiens, UniProt Q15116); assay: Jurkat-PD-1 Cell Binding High-Content Screening Assay (CBA); type: cell-based; details: Jurkat-PD-1 cells, PE-labeled PD-L1-Ig 20 nM final; read-out: Jurkat HPD1_PDL1 IC50
T1 construct: expressed in transfected cells; host or cells: Jurkat
T1 sequence (Q15116 25-288): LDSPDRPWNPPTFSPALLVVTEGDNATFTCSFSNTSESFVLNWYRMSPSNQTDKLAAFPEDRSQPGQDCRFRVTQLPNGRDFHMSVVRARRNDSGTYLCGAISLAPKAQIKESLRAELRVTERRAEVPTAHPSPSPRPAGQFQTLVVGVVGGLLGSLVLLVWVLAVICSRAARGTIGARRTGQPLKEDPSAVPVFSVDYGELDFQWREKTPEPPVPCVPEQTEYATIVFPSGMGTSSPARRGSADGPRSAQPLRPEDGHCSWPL
Description: Example 3. Jurkat-PD-1 Cell Binding High-Content Screening Assay (CBA)
Jurkat-PD-1 Cell Binding High-Content Screening Assay (CBA). Phycoerythrin (PE) was covalently linked to the Ig epitope tag of human PD-L1-Ig and fluorescently-labeled PD-L1-Ig was used for binding studies with a Jurkat cell line over-expressing human PD-1 (Jurkat-PD-1). Briefly, 8×10^3 Jurkat-hPD-1 cells were seeded into 384 well plates in 20 μl of DMEM supplemented with 10% fetal calf serum. 100 nL of compound was added to cells followed by incubation at 37° C. for 2 h. Then, 5 μl of PE-labeled PD-L1-Ig (20 nM final), diluted in DMEM supplemented with 10% fetal calf serum. After 1 hour incubation, cells were fixed with 4% paraformaldehyde in dPBS containing 10 μg/ml Hoechst 33342 and then washed 3x in 100 μl dPBS. Data was collected and processed using a Cell Insight NXT High Content Imager and associated software.

`CC(C)C[C@@H]1NC(=O)[C@H](CCCNC(=N)N)NC(=O)[C@@H](CC(C)C)NC(=O)[C@H](CCN)NC(=O)[C@H](CCCNC(=N)N)NC(=O)[C@H](Cc2ccc(-c3ccccc3)cc2)NC(=O)[C@H](C(C)C)NC(=O)[C@H](Cc2c[nH]c3ccccc23)NC(=O)[C@H](CC(=O)O)NC(=O)[C@H](Cc2ccc(O)cc2)NC(=O)[C@H](CC(N)=O)NC(=O)CSC[C@@H](C(=O)N[C@@H](C)C(N)=O)NC(=O)[C@H]([C@@H](C)O)NC(=O)[C@H](C(C)C)NC1=O` [Compound 1011] ({CH2CO}-NYDWV[Bip]R[Dab][dL]RLVTCA-NH2; thioether N-14) was tested. Which pIC50 did it give?
Its pIC50 is 7.17.

With `CC(C)C[C@@H]1NC(=O)[C@H](CCCNC(=N)N)NC(=O)[C@@H](CC(C)C)NC(=O)[C@H](CCCN)NC(=O)[C@H](CCCNC(=N)N)NC(=O)[C@H](Cc2ccc(-c3ccccc3)cc2)NC(=O)[C@H](C(C)C)NC(=O)[C@H](Cc2c[nH]c3ccccc23)NC(=O)[C@H](CC(=O)O)NC(=O)[C@H](Cc2ccc(O)cc2)NC(=O)[C@H](CC(N)=O)NC(=O)CSC[C@@H](C(=O)N[C@@H](C)C(N)=O)NC(=O)[C@H]([C@@H](C)O)NC(=O)[C@H](C(C)C)NC1=O` [Compound 1012] ({CH2CO}-NYDWV[Bip]R[Orn][dL]RLVTCA-NH2; thioether N-14) as the molecule, how does the pIC50 read?
Its pIC50 is 7.36.

How did the pIC50 turn out when `CC(C)C[C@@H]1NC(=O)[C@H](CCCNC(=N)N)NC(=O)[C@@H](CC(C)C)NC(=O)[C@@H](CCCCN)NC(=O)[C@H](CCCNC(=N)N)NC(=O)[C@H](Cc2ccc(-c3ccccc3)cc2)NC(=O)[C@H](C(C)C)NC(=O)[C@H](Cc2c[nH]c3ccccc23)NC(=O)[C@H](CC(=O)O)NC(=O)[C@H](Cc2ccc(O)cc2)NC(=O)[C@H](CC(N)=O)NC(=O)CSC[C@@H](C(=O)N[C@@H](C)C(N)=O)NC(=O)[C@H]([C@@H](C)O)NC(=O)[C@H](C(C)C)NC1=O` [Compound 1013] ({CH2CO}-NYDWV[Bip]R[dK][dL]RLVTCA-NH2; thioether N-14) was run?
The pIC50 was 6.89.

How did the pIC50 turn out when `CC(C)C[C@@H]1NC(=O)[C@H](CCN)NC(=O)[C@@H](CC(C)C)NC(=O)[C@H](C)NC(=O)[C@H](C(C)C)NC(=O)[C@H](Cc2ccc(-c3ccccc3)cc2)NC(=O)[C@H](C(C)C)NC(=O)[C@H](Cc2c[nH]c3ccccc23)NC(=O)[C@H](CC(=O)O)NC(=O)[C@H](Cc2ccc(O)cc2)NC(=O)[C@H](CC(N)=O)NC(=O)CSC[C@@H](C(=O)N[C@@H](C)C(N)=O)NC(=O)[C@H]([C@@H](C)O)NC(=O)[C@H](C(C)C)NC1=O` [Compound 1014] ({CH2CO}-NYDWV[Bip]VA[dL][Dab]LVTCA-NH2; thioether N-14) was run?
The pIC50 was 7.78.

`CC(C)C[C@@H]1NC(=O)[C@H](CCN)NC(=O)[C@@H](CC(C)C)NC(=O)[C@H](CCCN)NC(=O)[C@H](C(C)C)NC(=O)[C@H](Cc2ccc(-c3ccccc3)cc2)NC(=O)[C@H](C(C)C)NC(=O)[C@H](Cc2c[nH]c3ccccc23)NC(=O)[C@H](CC(=O)O)NC(=O)[C@H](Cc2ccc(O)cc2)NC(=O)[C@H](CC(N)=O)NC(=O)CSC[C@@H](C(=O)N[C@@H](C)C(N)=O)NC(=O)[C@H]([C@@H](C)O)NC(=O)[C@H](C(C)C)NC1=O` [Compound 1015] ({CH2CO}-NYDWV[Bip]V[Orn][dL][Dab]LVTCA-NH2; thioether N-14) was tested. Which pIC50 did it give?
The pIC50 was 7.62.

`CC(C)C[C@@H]1NC(=O)[C@H](CCN)NC(=O)[C@@H](CC(C)C)NC(=O)[C@H](CCCN)NC(=O)[C@H](CCC(=O)O)NC(=O)[C@H](Cc2ccc(-c3ccccc3)cc2)NC(=O)[C@H](C(C)C)NC(=O)[C@H](Cc2c[nH]c3ccccc23)NC(=O)[C@H](CC(=O)O)NC(=O)[C@H](Cc2ccc(O)cc2)NC(=O)[C@H](CC(N)=O)NC(=O)CSC[C@@H](C(=O)N[C@@H](C)C(N)=O)NC(=O)[C@H]([C@@H](C)O)NC(=O)[C@H](C(C)C)NC1=O` [Compound 1016] ({CH2CO}-NYDWV[Bip]E[Orn][dL][Dab]LVTCA-NH2; thioether N-14) was tested. Which pIC50 did it give?
Its pIC50 is 7.50.
